Here are results for 18 compounds from patent publication US10961231B2, “NTCP inhibitors” (National Institute of Biological Sciences, Beijing, priority 2018, dated 2021).

As usually defined, the IC50 is the concentration at which inhibition is half-maximal.

The first assay has as its target T1, NTCP (Homo sapiens, UniProt Q14973).
T1 sequence (Q14973 1-349): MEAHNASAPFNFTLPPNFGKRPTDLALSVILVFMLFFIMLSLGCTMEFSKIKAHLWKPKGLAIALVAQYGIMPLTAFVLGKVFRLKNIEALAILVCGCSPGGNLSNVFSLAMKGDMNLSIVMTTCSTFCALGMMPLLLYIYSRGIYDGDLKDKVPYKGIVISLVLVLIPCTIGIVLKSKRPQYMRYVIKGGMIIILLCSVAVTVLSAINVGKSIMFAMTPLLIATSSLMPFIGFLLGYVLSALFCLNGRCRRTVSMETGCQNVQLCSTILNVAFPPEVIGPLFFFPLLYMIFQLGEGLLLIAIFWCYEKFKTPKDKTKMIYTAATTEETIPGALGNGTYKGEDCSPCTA
As to the kind of experiment: [3H]-TCA uptake assay (NTCP inhibition). Format: cell-based. Particulars: IC50, given as a range, marked * (asterisk not explained). The method, boiled down:
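Read-out is liquid scintillation counting of Triton X-100 lysates after 15 min, 37° C uptake of 1 μM [3H]-taurocholate in Na+ Ringer's buffer (145 mM Na). Beforehand, PTH and HepG2-NTCP cells had 24 h in PMM for NTCP induction and 2 h of compound or DMSO treatment.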
As to `CCC1NC(=O)C(C2OC(SCc3ccc(OCCN(C)C)cc3)CC2C)N(C)C(=O)C(C(C)C)N(C)C(=O)C(CC(C)C)N(C)C(=O)C(CC(C)C)N(C)C(=O)C(C)NC(=O)C(C)NC(=O)C(CC(C)C)N(C)C(=O)C(C(C)C)NC(=O)C(CC(C)C)N(C)C(=O)CN(C)C1=O` (stereo not drawn) [Compound 87A-s], the IC50 is 1000 to 100000 nM. The same measure, in the same setting: the value for `CCC1NC(=O)C(C2OC(SCc3cccc(Cl)c3OC)CC2C)N(C)C(=O)C(C(C)C)N(C)C(=O)C(CC(C)C)N(C)C(=O)C(CC(C)C)N(C)C(=O)C(C)NC(=O)C(C)NC(=O)C(CC(C)C)N(C)C(=O)C(C(C)C)NC(=O)C(CC(C)C)N(C)C(=O)CN(C)C1=O` (stereo not drawn) [Compound 88A-s] was 1000 to 100000 nM. `CCC1NC(=O)C(C2OC(SCc3ccc(Cl)cc3Cl)CC2C)N(C)C(=O)C(C(C)C)N(C)C(=O)C(CC(C)C)N(C)C(=O)C(CC(C)C)N(C)C(=O)C(C)NC(=O)C(C)NC(=O)C(CC(C)C)N(C)C(=O)C(C(C)C)NC(=O)C(CC(C)C)N(C)C(=O)CN(C)C1=O` (stereo not drawn) [Compound 89A-s] gave an IC50 of 1000 to 100000 nM. Consider `CCC1NC(=O)C(C2OC(SCc3c(Cl)cccc3Cl)CC2C)N(C)C(=O)C(C(C)C)N(C)C(=O)C(CC(C)C)N(C)C(=O)C(CC(C)C)N(C)C(=O)C(C)NC(=O)C(C)NC(=O)C(CC(C)C)N(C)C(=O)C(C(C)C)NC(=O)C(CC(C)C)N(C)C(=O)CN(C)C1=O` (stereo not drawn) [Compound 90A-s], for which the IC50 lay within 1000 to 100000 nM. On the same count and under the same terms, the value for `CCC1NC(=O)C(C2OC(SCc3cc(Cl)cc(Cl)c3)CC2C)N(C)C(=O)C(C(C)C)N(C)C(=O)C(CC(C)C)N(C)C(=O)C(CC(C)C)N(C)C(=O)C(C)NC(=O)C(C)NC(=O)C(CC(C)C)N(C)C(=O)C(C(C)C)NC(=O)C(CC(C)C)N(C)C(=O)CN(C)C1=O` (stereo not drawn) [Compound 91B-s] was 1000 to 100000 nM; that for `CCC1NC(=O)C(C2OC(SC(C)c3cc(Cl)cc(Cl)c3)CC2C)N(C)C(=O)C(C(C)C)N(C)C(=O)C(CC(C)C)N(C)C(=O)C(CC(C)C)N(C)C(=O)C(C)NC(=O)C(C)NC(=O)C(CC(C)C)N(C)C(=O)C(C(C)C)NC(=O)C(CC(C)C)N(C)C(=O)CN(C)C1=O` (stereo not drawn) [Compound 92A-s] was 1000 to 100000 nM. Same read-out and setting: the value for `CCC1NC(=O)C(C2OC(SCc3ccc(Cl)c(Cl)c3)CC2C)N(C)C(=O)C(C(C)C)N(C)C(=O)C(CC(C)C)N(C)C(=O)C(CC(C)C)N(C)C(=O)C(C)NC(=O)C(C)NC(=O)C(CC(C)C)N(C)C(=O)C(C(C)C)NC(=O)C(CC(C)C)N(C)C(=O)CN(C)C1=O` (stereo not drawn) [Compound 94A-s] was 1000 to 100000 nM. Same read-out and setting: the value for `CCC1NC(=O)C(C2OC(SCc3cccc(N4CCOCC4)c3)CC2C)N(C)C(=O)C(C(C)C)N(C)C(=O)C(CC(C)C)N(C)C(=O)C(CC(C)C)N(C)C(=O)C(C)NC(=O)C(C)NC(=O)C(CC(C)C)N(C)C(=O)C(C(C)C)NC(=O)C(CC(C)C)N(C)C(=O)CN(C)C1=O` (stereo not drawn) [Compound 95-s] was 1000 to 100000 nM; that for `CCC1NC(=O)C(C2OC(OCc3cccc(N4CCOCC4)c3)CC2C)N(C)C(=O)C(C(C)C)N(C)C(=O)C(CC(C)C)N(C)C(=O)C(CC(C)C)N(C)C(=O)C(C)NC(=O)C(C)NC(=O)C(CC(C)C)N(C)C(=O)C(C(C)C)NC(=O)C(CC(C)C)N(C)C(=O)CN(C)C1=O` (stereo not drawn) [Compound 95] was 1000 to 100000 nM. In the case of `CCC1NC(=O)C(C2OC(SC(C)c3ccc(Cl)c(Cl)c3)CC2C)N(C)C(=O)C(C(C)C)N(C)C(=O)C(CC(C)C)N(C)C(=O)C(CC(C)C)N(C)C(=O)C(C)NC(=O)C(C)NC(=O)C(CC(C)C)N(C)C(=O)C(C(C)C)NC(=O)C(CC(C)C)N(C)C(=O)CN(C)C1=O` (stereo not drawn) [Compound 96A-s], the IC50 lay within 1000 to 100000 nM.

Staying with this assay, now noted: IC50, given as a range; assay not given.
With `CCC1NC(=O)C(C2OC(SCc3ccc(Cl)cc3)CC2C)N(C)C(=O)C(C(C)C)N(C)C(=O)C(CC(C)C)N(C)C(=O)C(CC(C)C)N(C)C(=O)C(C)NC(=O)C(C)NC(=O)C(CC(C)C)N(C)C(=O)C(C(C)C)NC(=O)C(CC(C)C)N(C)C(=O)CN(C)C1=O` (stereo not drawn) [Compound 86A-s], the IC50 fell in the range of 1000 to 100000 nM. On the same count and under the same terms, the same measure for `CCC1NC(=O)C(C2OC(OCc3ccc(OCCN(C)C)cc3)CC2C)N(C)C(=O)C(C(C)C)N(C)C(=O)C(CC(C)C)N(C)C(=O)C(CC(C)C)N(C)C(=O)C(C)NC(=O)C(C)NC(=O)C(CC(C)C)N(C)C(=O)C(C(C)C)NC(=O)C(CC(C)C)N(C)C(=O)CN(C)C1=O` [Compound 87A, [2-((2R,3R)-5-(4-(2-(dimethylamino)ethoxy)benzyloxy)-3-methyltetrahydrofuran-2-yl)-2-(methylamino)acetic acid]^1-cyclosporin A]: 1000 to 10000 nM.

Staying with this assay, now noted: given as a range; assay not given.
For the compound `CCC1NC(=O)C(C2OC(OCc3ccc(Cl)cc3)CC2C)N(C)C(=O)C(C(C)C)N(C)C(=O)C(CC(C)C)N(C)C(=O)C(CC(C)C)N(C)C(=O)C(C)NC(=O)C(C)NC(=O)C(CC(C)C)N(C)C(=O)C(C(C)C)NC(=O)C(CC(C)C)N(C)C(=O)CN(C)C1=O` [Compound 86A, [2-((2R,3R)-5-(4-chlorobenzyloxy)-3-methyltetrahydrofuran-2-yl)-2-(methylamino)acetic acid]^1-cyclosporin A], the IC50 lay in the range of 1 to 1000 nM. On the same count and under the same terms, the same measure for `CCC1NC(=O)C(C2OC(SCc3cc(Cl)cc(Cl)c3)CC2C)N(C)C(=O)C(C(C)C)N(C)C(=O)C(CC(C)C)N(C)C(=O)C(CC(C)C)N(C)C(=O)C(C)NC(=O)C(C)NC(=O)C(CC(C)C)N(C)C(=O)C(C(C)C)NC(=O)C(CC(C)C)N(C)C(=O)CN(C)C1=O` [Compound 91A-s, [2-((2R,3R)-5-(3,5-dichlorobenzylthio)-3-methyltetrahydrofuran-2-yl)-2-(methylamino)acetic acid]^1-cyclosporin A]: 1 to 1000 nM. On to `CCC1NC(=O)C(C2OC(OCc3cc(Cl)cc(Cl)c3)CC2C)N(C)C(=O)C(C(C)C)N(C)C(=O)C(CC(C)C)N(C)C(=O)C(CC(C)C)N(C)C(=O)C(C)NC(=O)C(C)NC(=O)C(CC(C)C)N(C)C(=O)C(C(C)C)NC(=O)C(CC(C)C)N(C)C(=O)CN(C)C1=O` [Compound 91B, [2-((2R,3R)-5-(3,5-dichlorobenzyloxy)-3-methyltetrahydrofuran-2-yl)-2-(methylamino)acetic acid]^1-cyclosporin A], for which the IC50 was in the range of 1 to 1000 nM. On the same count and under the same terms, the value for `CCC1NC(=O)C(C2OC(OC(C)c3cc(Cl)cc(Cl)c3)CC2C)N(C)C(=O)C(C(C)C)N(C)C(=O)C(CC(C)C)N(C)C(=O)C(CC(C)C)N(C)C(=O)C(C)NC(=O)C(C)NC(=O)C(CC(C)C)N(C)C(=O)C(C(C)C)NC(=O)C(CC(C)C)N(C)C(=O)CN(C)C1=O` [Compound 92A, [2-((2R,3R)-5-((S)-1-(3,5-dichlorophenyl)ethoxy)-3-methyltetrahydrofuran-2-yl)-2-(methylamino)acetic acid]^1-cyclosporin A] was 1 to 1000 nM.

In turn, `CCC1NC(=O)C(C2OC(OCc3ccc(Cl)c(Cl)c3)CC2C)N(C)C(=O)C(C(C)C)N(C)C(=O)C(CC(C)C)N(C)C(=O)C(CC(C)C)N(C)C(=O)C(C)NC(=O)C(C)NC(=O)C(CC(C)C)N(C)C(=O)C(C(C)C)NC(=O)C(CC(C)C)N(C)C(=O)CN(C)C1=O` [Compound 94B, [2-((2R,3R)-5-(3,4-dichlorobenzyloxy)-3-methyltetrahydrofuran-2-yl)-2-(methylamino)acetic acid]^1-cyclosporin A] yielded an IC50 of 1 to 1000 nM.

Still in this assay, the particulars now being: given as a range; assay not given; read-out: IC50.
In the case of `CC[C@@H]1NC(=O)[C@H]([C@@H]2OC(OCc3cc(Cl)cc(Cl)c3)C[C@H]2C)N(C)C(=O)[C@H](C(C)C)N(C)C(=O)[C@H](CC(C)C)N(C)C(=O)[C@H](CC(C)C)N(C)C(=O)[C@@H](C)NC(=O)[C@H](C)NC(=O)[C@H](CC(C)C)N(C)C(=O)[C@H](C(C)C)NC(=O)[C@H](CC(C)C)N(C)C(=O)CN(C)C1=O` (stereo partly drawn) [Compound 91A, [2-((2R,3R)-5-(3,5-dichlorobenzyloxy)-3-methyltetrahydrofuran-2-yl)-2-(methylamino)acetic acid]^1-cyclosporin A], the IC50 was in the range of 1 to 1000 nM.
